The record followed here is article PMC10788917 (Journal of Medicinal Chemistry, 2023).

Each structure is given as a SMILES string. Like-named read-outs stand apart in the source and are kept apart here. A value given as a limit tells only on which side of the number the result lay.

In one experiment the target is T1, HDAC8 Cys153Ser mutant (Homo sapiens, UniProt Q9BY41, C153S).
T1 construct: made in house
Briefly: HDAC8 mutant biochemical assay. Particulars: preincubation 1 h.

In a further experiment the test system is MV4-11 cells. Briefly: CellTiter-Blue cell viability assay. It is filed as cell-based. Particulars: Homo sapiens, 72 h, HDAC8-dependent line, Figure 7B. Here is the method:
(§1) All cell lines were purchased from DSMZ (Braunschweig, Germany). The cell lines were regularly tested to exclude mycoplasma contamination and authenticated. […] Media were supplemented with 10% fetal calf serum (FCS), 10 units/mL penicillin, 10 μg/mL streptomycin, and 2 mM L-glutamine (all Gibco, Thermo Fisher Scientific).
(§2) To determine the IC50 of the selected compounds on the cell lines, the CellTiter-Blue cell viability assay (Promega) was performed. For this, cells were seeded in 96-well flat-bottom plates at a cell density of 10 000 cells/well. Cells were treated in triplicate with the compound of interest at various concentrations or with 10 μM Bortezomib (S1013; Selleck Chemicals, Houston, TX), as a positive control. […] Plates were measured using a GloMax plate reader (Promega), and IC50 values were determined by nonlinear regression using GraphPad Prism version 9.1.1 (GraphPad Software, Inc.), and the data are reported as mean values ± the standard error of the mean.
(In general: The colour change of resazurin is a common sign of viable cells or microbes.)

The next experiment concerns MOLM-13 cells. Briefly: CellTiter-Blue cell viability assay. Particulars: Homo sapiens, 72 h, HDAC8-dependent line, Figure 7B. It counts as cell-based. Here is the method: as §1, §2
The subject of the next experiment is HEL cells. Briefly: CellTiter-Blue cell viability assay. It is filed as cell-based. Particulars: Homo sapiens, 72 h, HDAC8-independent line, Figure 7B. Here is the method: as §1, §2
Another experiment has as its system THP-1 cells. Briefly: CellTiter-Blue cell viability assay. It counts as cell-based. Particulars: Homo sapiens, 72 h. Here is the method: as §1, §2
Another experiment has as its system SET2 cells. Briefly: CellTiter-Blue cell viability assay. It counts as cell-based. Particulars: Homo sapiens, SET-2; 72 h, HDAC8-independent line, Figure 7B. How it is done: as §1, §2
For the next experiment, the system named is OCI-AML3 cells. Briefly: CellTiter-Blue cell viability assay. It is filed as cell-based. Particulars: Homo sapiens, OCI-AML-3; 72 h, HDAC8-dependent line, Figure 7B. Here is the method:
as §1, §2

A further experiment concerns the target T2, HDAC8 (Homo sapiens, UniProt Q9BY41).
T2 construct: one additional N-terminal residue 'H' (His) (N)
T2 sequence (Q9BY41 1-377): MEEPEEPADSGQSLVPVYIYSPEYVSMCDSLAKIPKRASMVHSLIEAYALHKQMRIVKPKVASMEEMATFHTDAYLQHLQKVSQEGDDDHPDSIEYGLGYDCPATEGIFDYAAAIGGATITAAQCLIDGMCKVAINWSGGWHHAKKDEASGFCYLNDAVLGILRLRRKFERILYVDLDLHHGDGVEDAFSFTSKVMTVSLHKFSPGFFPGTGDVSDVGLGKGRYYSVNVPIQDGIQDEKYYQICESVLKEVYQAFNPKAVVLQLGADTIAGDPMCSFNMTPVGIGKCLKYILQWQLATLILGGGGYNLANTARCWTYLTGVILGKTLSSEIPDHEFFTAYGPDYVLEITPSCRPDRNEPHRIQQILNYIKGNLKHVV
Briefly: Kinetic parameters of inactivation from time-dependent IC50. It counts as biochemical. Here is the method:
Time-dependent IC50 values were obtained using the previously described enzyme activity assay after varying preincubation times.

For a further experiment, the system named is HL60 cells. Briefly: CellTiter-Blue cell viability assay. Particulars: Homo sapiens, HL-60; 72 h, Figure 7A. It is filed as cell-based. How it is done: All cell lines were purchased from DSMZ (Braunschweig, Germany). The cell lines were regularly tested to exclude mycoplasma contamination and authenticated. Cell lines were grown at 37 °C and 5% CO2 in RPMI 1640 medium (Gibco, Thermo Fisher Scientific). Media were supplemented with 10% fetal calf serum (FCS), 10 units/mL penicillin, 10 μg/mL streptomycin, and 2 mM L-glutamine (all Gibco, Thermo Fisher Scientific).
To determine the IC50 of the selected compounds on the cell lines, the CellTiter-Blue cell viability assay (Promega) was performed. For this, cells were seeded in 96-well flat-bottom plates at a cell density of 10 000 cells/well. Cells were treated in triplicate with the compound of interest at various concentrations or with 10 μM Bortezomib (S1013; Selleck Chemicals, Houston, TX), as a positive control. The cell viability of treated cell lines was measured using CellTiter-Blue after incubation for 72 h. Plates were measured using a GloMax plate reader (Promega), and IC50 values were determined by nonlinear regression using GraphPad Prism version 9.1.1 (GraphPad Software, Inc.), and the data are reported as mean values ± the standard error of the mean.

T1 sequence (Q9BY41 whole entry C153S): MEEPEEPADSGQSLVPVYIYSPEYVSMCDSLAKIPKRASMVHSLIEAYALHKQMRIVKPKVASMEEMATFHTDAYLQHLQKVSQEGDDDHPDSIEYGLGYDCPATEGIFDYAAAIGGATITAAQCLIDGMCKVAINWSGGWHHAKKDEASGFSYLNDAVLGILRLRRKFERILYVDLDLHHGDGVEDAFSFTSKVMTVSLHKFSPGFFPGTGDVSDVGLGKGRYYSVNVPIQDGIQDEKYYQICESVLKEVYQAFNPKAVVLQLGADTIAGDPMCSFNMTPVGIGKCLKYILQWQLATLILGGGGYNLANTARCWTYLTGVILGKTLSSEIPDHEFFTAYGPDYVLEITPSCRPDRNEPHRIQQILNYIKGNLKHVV

On to `C#Cc1c[n+](C)ccc1NC(=O)CC(=O)N1Cc2ccccc2C1.[I-]` [compound 3, 3-Ethynyl-4-[3-(isoindolin-2-yl)-3-oxopropanamido]-1-methylpyridin-1-ium Iodide], for which the IC50 (in general, the concentration at which inhibition is half-maximal) was 58.8 µM at HDAC8 Cys153Ser mutant; 8.23 ± 0.12 µM in the experiment with MV4-11 cells; 7.08 ± 1.07 µM in the experiment with MOLM-13 cells; above 200 µM with HEL cells; 46.5 µM in the experiment on THP-1 cells (Figure 7A, read-out: cell viability IC50, THP-1); 78.1 ± 32.8 µM with THP-1 cells (HDAC8-independent line, Figure 7B, read-out: THP-1 IC50). In addition, the concentration for half-maximal inhibition (IC50) in the experiment with SET2 cells is above 200 µM; in the experiment on OCI-AML3 cells it was 27.2 ± 5.86 µM; in the experiment on HL60 cells, 161 µM. Moreover, the kinact/KI (commonly the maximal inactivation rate divided by the concentration that gives half of it) on HDAC8 (HDAC8) was found to be 1570 M⁻¹ s⁻¹. On HDAC8 (HDAC8, inactivation constant), this compound had a Ki of 3.2 µM. Also, the kinact (commonly the rate constant of inactivation at saturating inhibitor) on HDAC8 (HDAC8, time-dependent IC50, Krippendorff approach) stood at 0.0051 s⁻¹.
